# Data: US10905738B2, “Synthetic peptides, prodrugs, pharmaceutical compositions and uses” (Biozeus Desenvolvimento De Produtos Biofarmacêuticos, priority 2018, dated 2021)
# Where a SMILES comes first, the peptide text is derived from it.
# Tested on: monocrotaline-induced model of PAH
# Experiment: anti-inflammatory effect in monocrotaline-induced model of PAH (lymph node weight, heart homogenate cytokines by ELISA)
# Format: in vivo, male Wistar Rats
# Details: 0.06 mg/kg, MCT rats
# Excerpt: In the experiment described in example 5, the animals were killed for postmortem analyses of inflammatory markers.
# In 1 out of 5 patients with PAH, the mediastinal lymph nodes are enlarged due to inflammation-related edema (BERGIN, C. J., PARK, K. J. Lymph node enlargement in pulmonary arterial hypertension due to chronic thromboembolism. J Med Imaging Radiat Oncol, 52(1):18-23. 2008). Edematous organs weigh more, due to the increased liquid content, therefore we weighed several organs of the animals of example 5 post-euthanasia.
# Samples of hearts of the monocrotaline study were investigated to uncover the potential anti-inflammatory action of SEQ ID NO: 19. Hearts were kept on ice during all sample homogenization processes. Lysis buffer containing 1% protease inhibitor cocktail (Sigma) diluted in phosphate-buffered saline (PBS) was added in a proportion of 1 mL for each sample. Sodium orthovanadate (SIGMA) 1 mM was also added. Tissues were homogenized and then centrifuged at 10,000 g for 10 min. Supernatants of each sample were collected into sterile identified tubes for measurements of total protein and cytokine levels (tumor necrosis factor (TNF)-α, interferon (INF)-γ, and interleukin (IL)-1β).
# Total protein values in the samples were measured using the Bradford assay (BioRad, Hercules, Calif., USA), according to manufacturer's instructions. Briefly, the protocol was performed in a microplate in a final volume of 150 μl. A calibration curve linear range between 0.025 and 2.0 mg/ml was prepared with bovine serum albumin (BSA, SIGMA). Protein solutions were assayed in duplicate. Samples were diluted 20-fold into lysis buffer, and then 25 μl from these samples was loaded into each well. Using a multichannel pipet, 125 μl of Quick Start™ Bradford 1× Dye Reagent solution was added to yield a final volume of 150 μl. The samples were incubated at room temperature for 5 min, and the absorbance was then measured with a spectrophotometer at 595 nm (SpectraMax Microplate reader, Molecular Devices, San Jose, Calif., USA). The standard curve was plotted as a linear regression line that was interpolated with the mean absorbance of each sample in order to find a sample's total protein concentration expressed as mg/ml.
# Concentrations of TNF-α, INF-γ, and IL-1β were measured using an enzyme-linked immunosorbent assay (ELISA) for heart homogenates. TNF-α (Catalog #900-K54) and INF-γ (Catalog #900-K98) kits were purchased from Peprotech (Rocky Hill, […]., USA) while the IL-1β (DY401) kit was from R&D Systems (Minneapolis, Minn., USA). The assays were performed in accordance with the manufacturer's recommendations.
# Data analyses were performed with a statistical software package (Prism version 5.0, Graph-Pad Software, San Diego, Calif.). Data were expressed as mean±SEM. […]
compound,measurement,setting,value
"CC[C@H](C)[C@H](NC(=O)[C@H](Cc1c[nH]c2ccccc12)NC(=O)[C@H](Cc1ccccc1)NC(C)=O)C(=O)N[C@@H](C)C(=O)N[C@@H](Cc1c[nH]c2ccccc12)C(=O)N[C@@H](Cc1ccc(O)cc1)C(=O)N[C@@H](CCCCN)C(=O)N[C@@H](CC(C)C)C(=O)N[C@@H](C)C(N)=O [SEQ ID NO: 19, Ac-Phe-Trp-Ile-Ala-Trp-Tyr-Lys-Leu-Ala-NH2] (Ac-FWIAWYKLA-NH2)",IL-1β in heart homogenates,ELISA,decreases the cytokines to values similar to control
same,INF-γ in heart homogenates,ELISA,decreases the cytokines to values similar to control
same,TNF-α in heart homogenates,ELISA,decreases the cytokines to values similar to control
same,edematous weight gain of mediastinal lymph nodes,post-euthanasia organ weight,able to reduce the edematous weight gain
